Tests used:
Caco-2 cells [1] = conditions: 75 μM H2O2, 30 minutes incubation time; cited from earlier work
Caco-2 cells [2] = assay: STEM time series analysis of gene expression; format: cell-based, human; conditions: for genes whose time-dependent expression correlates with 8-oxodG levels / genes significantly assigned to clusters of gene expression curves / number of different clusters of gene expression curves: STEM; for genes whose time-dependent expression correlates with 8-oxodG levels: log ratio transformed 8-oxodG levels; for genes significantly assigned to clusters of gene expression curves / number of different clusters of gene expression curves: 20 uM H2O2 or 100 uM menadione
From the text: For identification of genes co-regulated time-dependently and clustering with the phenotypic parameters, the software tool “Short Time-series Expression Miner” (STEM, version 1.1.2b; http://www.cs.cmu.edu/˜jernst/stem/) was used. […] Profiles are clustered by correlation analyses.

Caco-2 cells [3] = assay: 8-oxodG analysis (oxidative DNA damage, HPLC-ECD); format: cell-based, human
Method: The Caco-2 human colorectal adenocarcinoma cell line (American Type Culture Collection, Manassas, Va., USA) was grown in Dulbecco's Modified Eagle's Medium supplemented with 10% fetal bovine serum, 1% non-essential amino acids, 1% sodium pyruvate and 1% penicillin/streptomycin, at 37° C., and 5% CO2. Cells were grown until 80% confluency before medium was replaced by DMEM without supplements containing 100 μM menadione or 20 μM H202. For microarray analyses, time-matched control cells were treated in an identical manner without addition of the oxidants. Samples were taken after 0.08, 0.25, 0.5, 1, 2, 4, 8, 16, or 24 hours. […] At the indicated time points, cells were fixed in 2 ml ice cold methanol for flow cytometry or medium was replaced by 1 ml Trizol for RNA/DNA isolation. […] Briefly, after extraction, DNA was digested into deoxyribonucleosides by treatment with nuclease P1 [0.02 U/μl] and alkaline phosphatase [0.014 U/μl]. The digest was then injected into a HPLC-ECD-system. […] UV-absorption of dG was simultaneously monitored at 260 nm. Data are presented as means ±SD.

Caco-2 cells [4] = assay: Microarray gene expression, differentially expressed genes; format: cell-based, human; conditions: for number of differentially expressed genes: 20 uM H2O2 or 100 uM menadione, all time points up to 24 hours
Method: The Caco-2 human colorectal adenocarcinoma cell line (American Type Culture Collection, Manassas, Va., USA) was grown in Dulbecco's Modified Eagle's Medium supplemented with 10% fetal bovine serum, 1% non-essential amino acids, 1% sodium pyruvate and 1% penicillin/streptomycin, at 37° C., and 5% CO2. Cells were grown until 80% confluency before medium was replaced by DMEM without supplements containing 100 μM menadione or 20 μM H202. For microarray analyses, time-matched control cells were treated in an identical manner without addition of the oxidants. […] At the indicated time points, cells were fixed in 2 ml ice cold methanol for flow cytometry or medium was replaced by 1 ml Trizol for RNA/DNA isolation. Labelling and hybridisation of RNA samples were done according to Agilent's manual for microarrays with minor modifications ((Agilent Technologies, Breda, The Netherlands). RNA (0.5 μg) was transcribed into cDNA and labelled with Cyanine 3 (Cy3) or Cyanine 5 (Cy5). When dye-incorporation was above 7 pmol/μg RNA, 2 μg cRNA of the treated and time-matched control samples was applied on […] 22K and […] 4×44K Agilent Human Oligo Microarray. Slides were scanned on a GenePix 4000B (Molecular Devices, Sunnyvale, USA) with fixed laser power (100%) and PMT gain. For each exposure, two biological repeats per time point were performed. Also swapped Cy3 and Cy5 dye labelling was done, resulting in 72 hybridisations. Images were processed with ImaGene 6.0 software (BioDiscovery Inc., Los Angeles, USA) to quantify spot signals. Irregular spots were flagged. Data from ImaGene were transported into GeneSight software version 4.1.6 (BioDiscovery Inc., Los Angeles, USA). For each spot background was subtracted and flagged spots as well as spots with a net expression level below 20 in both channels were omitted. Data were log base 2 transformed and LOWESS normalization was applied. Expression difference with the time-matched control was calculated and if more than one probe of a gene was present on the array, the replicates were combined while omitting outliers (>2 standard deviations). Only the probe sets present at both types of array platforms were selected. […] The webtool GenePattern (http://genepattern.broad.mit.edu/gp/pages/index.jsf) was used for clustering and visualization of heat maps and cluster patterns.

Caco-2 cells [5] = assay: MetaCore pathway analysis of differentially expressed genes; format: cell-based, human; conditions: for Number of pathways: significant pathways p<0.01, 20 uM H2O2 or 100 uM menadione
From the text: The p-Values were all calculated using the basic formula for hypergeometric distribution. The p-Value essentially represents the probability for a particular mapping of an experiment to a pathway to arise by chance, considering the numbers of genes in experiment versus the number of genes in the pathway within the “full set” of all genes in the pathway.

Caco-2 cells [6] = assay: Flow cytometric analysis of cell cycle distribution; format: cell-based, human; conditions: for percentage of cells in the S phase: 20 uM H2O2 or 100 uM menadione
Method: (§1) The Caco-2 human colorectal adenocarcinoma cell line (American Type Culture Collection, Manassas, Va., USA) was grown in Dulbecco's Modified Eagle's Medium supplemented with 10% fetal bovine serum, 1% non-essential amino acids, 1% sodium pyruvate and 1% penicillin/streptomycin, at 37° C., and 5% CO2. Cells were grown until 80% confluency before medium was replaced by DMEM without supplements containing 100 μM menadione or 20 μM H202. For microarray analyses, time-matched control cells were treated in an identical manner without addition of the oxidants. Samples were taken after 0.08, 0.25, 0.5, 1, 2, 4, 8, 16, or 24 hours. […] At the indicated time points, cells were fixed in 2 ml ice cold methanol for flow cytometry or medium was replaced by 1 ml Trizol for RNA/DNA isolation. Analyses of cell cycle profiles and apoptosis was performed as previously described. Cells were stained with propidium iodide; apoptotic cells were visualised by means of the primary antibody M30 CytoDeath (Roche, Penzberg, Germany) and FITC conjugated anti-mouse Ig as secondary antibody (DakoCytomation, Glostrup, Denmark). Data analysis was done using CellQuest software (version 3.1, Becton Dickinson, San Jose, USA). […] Cell cycle profiles were analyzed using ModFit LT for Mac (version 2.0). Data are presented as means ±SD.

Caco-2 cells [7] = assay: ESR spectroscopy of cellular radical formation (DMPO spin trap); format: cell-based, human
[8] = test system: steroid 5-alpha reductase; conditions: inhibition of steroid 5-alpha reductase; cited from earlier work
Caco-2 cells [9] = assay: Flow cytometric analysis of apoptosis (M30 CytoDeath); format: cell-based, human; conditions: 20 uM H2O2 or 100 uM menadione
Method: as §1

rat hepatocytes = conditions: up to 2 hours after incubation; cited from earlier work

OO [H2O2, hydrogen peroxide]
affected genes selected out of 12931 genes (Caco-2 cells [1]): 87 genes | Number of pathways of the gene expression cluster profile (Caco-2 cells [2]; H2O2, STEM cluster 0, p<0.01): 4 | Number of pathways of the gene expression cluster profile (Caco-2 cells [2]; H2O2, STEM cluster 1, p<0.01): 1 | Number of pathways of the gene expression cluster profile (Caco-2 cells [2]; H2O2, STEM cluster 2, p<0.01): 9 | Number of pathways of the gene expression cluster profile (Caco-2 cells [2]; H2O2, STEM cluster 3, p<0.01): 1 | Number of pathways of the gene expression cluster profile (Caco-2 cells [2]; H2O2, STEM cluster 4, p<0.01): 3 | Number of pathways of the gene expression cluster profile (Caco-2 cells [2]; H2O2, STEM cluster 5, p<0.01): 4 | genes whose time-dependent expression correlates with 8-oxodG levels (Caco-2 cells [2]): 8 genes | genes significantly assigned to clusters of gene expression curves (Caco-2 cells [2]): 998 genes | number of different clusters of gene expression curves (Caco-2 cells [2]): 6 clusters | genes clustered by STEM with cell cycle phase (Caco-2 cells [2]; cell cycle phase G1): 29 | significant pathways of genes clustered with cell cycle phase (Caco-2 cells [2]; cell cycle phase G1, p<0.01): 0 | genes clustered by STEM with cell cycle phase (Caco-2 cells [2]; cell cycle phase G2/M): 45 | significant pathways of genes clustered with cell cycle phase (Caco-2 cells [2]; cell cycle phase G2/M, p<0.01): 1 | genes clustered by STEM with cell cycle phase (Caco-2 cells [2]; cell cycle phase S): 1 | significant pathways of genes clustered with cell cycle phase (Caco-2 cells [2]; cell cycle phase S, p<0.01): 0 | 8-oxodG level at 16 hours after exposure (Caco-2 cells [3]; 20 uM H2O2, 16 hours): significantly elevated | time of significantly increased peak in 8-oxodG (Caco-2 cells [3]; 20 uM H2O2, compared to control cells): 15 min | number of differentially expressed genes (Caco-2 cells [4]): 1404 genes | recovery of the gene expression response (Caco-2 cells [4]; pulse-like response towards H2O2): ≤ 1 h | induction of the WNT signalling pathway (Caco-2 cells [5]; H2O2 exposure): immediately | Number of pathways (Caco-2 cells [5]; time 0.08 hrs): 8 | Number of pathways (Caco-2 cells [5]; time 0.25 hrs): 15 | Number of pathways (Caco-2 cells [5]; time 0.5 hrs): 17 | Number of pathways (Caco-2 cells [5]; time 1 hrs): 6 | Number of pathways (Caco-2 cells [5]; time 2 hrs): 4 | Number of pathways (Caco-2 cells [5]; time 4 hrs): 5 | Number of pathways (Caco-2 cells [5]; time 8 hrs): 8 | Number of pathways (Caco-2 cells [5]; time 16 hrs): 5 | Number of pathways (Caco-2 cells [5]; time 24 hrs): 6 | number of cells in G1 phase (Caco-2 cells [6]; 16 h after exposure, compared to control cells): significantly decreased | percentage of cells in the G1/M phase (Caco-2 cells [6]; 24 h, 20 uM H2O2): significantly increased | percentage of cells in the S phase (Caco-2 cells [6]; 24 h): significantly decreased | cellular HO. formation (DMPO.-OH) (Caco-2 cells [7]; increasing concentrations of H2O2): dose-dependent formation of DMPO.-OH

CC(C)(C)NC(=O)[C@H]1CC[C@H]2[C@@H]3CC[C@H]4NC(=O)C=C[C@]4(C)[C@H]3CC[C@]12C [finasteride]
effect on cellular H2O2 production [8]: enhancement of cellular H2O2 production

CC1=CC(=O)c2ccccc2C1=O [menadione]
genes whose time-dependent expression correlates with 8-oxodG levels (Caco-2 cells [2]): 3 genes | genes significantly assigned to clusters of gene expression curves (Caco-2 cells [2]): 680 genes | number of different clusters of gene expression curves (Caco-2 cells [2]): 4 clusters | genes clustered by STEM with cell cycle phase (Caco-2 cells [2]; cell cycle phase G1): 311 | significant pathways of genes clustered with cell cycle phase (Caco-2 cells [2]; cell cycle phase G1, p<0.01): 15 | genes clustered by STEM with cell cycle phase (Caco-2 cells [2]; cell cycle phase G2/M): 1 | significant pathways of genes clustered with cell cycle phase (Caco-2 cells [2]; cell cycle phase G2/M, p<0.01): 0 | genes clustered by STEM with cell cycle phase (Caco-2 cells [2]; cell cycle phase S): 74 | significant pathways of genes clustered with cell cycle phase (Caco-2 cells [2]; cell cycle phase S, p<0.01): 4 | Number of pathways of the gene expression cluster profile (Caco-2 cells [2]; menadione, STEM cluster 0, p<0.01): 12 | Number of pathways of the gene expression cluster profile (Caco-2 cells [2]; menadione, STEM cluster 1, p<0.01): 18 | Number of pathways of the gene expression cluster profile (Caco-2 cells [2]; menadione, STEM cluster 2, p<0.01): 4 | Number of pathways of the gene expression cluster profile (Caco-2 cells [2]; menadione, STEM cluster 3, p<0.01): 8 | time of highest significantly increased level of 8-oxodG (Caco-2 cells [3]; 100 uM menadione): 2 h | 8-oxodG level at 15 minutes (Caco-2 cells [3]; 100 uM menadione, 15 minutes, much lower than H2O2 at 15 minutes): significant increased level | number of differentially expressed genes (Caco-2 cells [4]): 979 genes | recovery of the gene expression response (Caco-2 cells [4]; up to 24 hours): no recovery | induction of apoptosis (Caco-2 cells [9]): absence of apoptosis | time after which the WNT signalling pathway is induced (Caco-2 cells [5]; menadione exposure): 1 h | number of pathways significantly induced exclusively by the oxidant (Caco-2 cells [5]; p < 0.01): 24 | Number of pathways (Caco-2 cells [5]; time 0.08 hrs): 18 | Number of pathways (Caco-2 cells [5]; time 0.25 hrs): 16 | Number of pathways (Caco-2 cells [5]; time 0.5 hrs): 14 | Number of pathways (Caco-2 cells [5]; time 1 hrs): 15 | Number of pathways (Caco-2 cells [5]; time 2 hrs): 8 | Number of pathways (Caco-2 cells [5]; time 4 hrs): 10 | Number of pathways (Caco-2 cells [5]; time 8 hrs): 14 | Number of pathways (Caco-2 cells [5]; time 16 hrs): 19 | Number of pathways (Caco-2 cells [5]; time 24 hrs): 18 | cells of the G1 phase (Caco-2 cells [6]; 24 h, 100 uM menadione): significant decrease | percentage of cells in the S phase (Caco-2 cells [6]; 24 h): significant increase | 8-oxodG formation (rat hepatocytes): absence of 8-oxodG formation | O2.-derived DMPO.-OH signal (Caco-2 cells [7]; 100 uM, 45 minutes incubation time): showed an O2.-derived DMPO.-OH signal

Reference: US20120077704A1, “METHOD FOR SCREENING COMPOUNDS FOR THE TREATMENT OR PREVENTION OF COLON CANCER” (priority 2009, published 2012)
